These are literature values, as cited in patent US20120128784A1, “COMPOSITION CONTAINING BEE VENOM AS AN ACTIVE INGREDIENT FOR PREVENTING AND TREATING ACNE” (Dong Sung Pharm. Co., Ltd., priority 2009, published 2012).

This series deals with edema. The note with it: injected into arthritis patients.

Consider `CC[C@H](C)[C@H](NC(=O)CN)C(=O)NCC(=O)N[C@@H](C)C(=O)N[C@H](C(=O)N[C@@H](CC(C)C)C(=O)N[C@@H](CCCCN)C(=O)N[C@H](C(=O)N[C@@H](CC(C)C)C(=O)N[C@H](C(=O)N[C@H](C(=O)NCC(=O)N[C@@H](CC(C)C)C(=O)N1CCC[C@H]1C(=O)N[C@@H](C)C(=O)N[C@@H](CC(C)C)C(=O)N[C@H](C(=O)N[C@@H](CO)C(=O)N[C@@H](Cc1c[nH]c2ccccc12)C(=O)N[C@H](C(=O)N[C@@H](CCCCN)C(=O)N[C@@H](CCCNC(=N)N)C(=O)N[C@@H](CCCCN)C(=O)N[C@@H](CCCNC(=N)N)C(=O)N[C@@H](CCC(N)=O)C(=O)N[C@@H](CCC(N)=O)C(N)=O)[C@@H](C)CC)[C@@H](C)CC)[C@@H](C)O)[C@@H](C)O)C(C)C)C(C)C` [melittin], for which the inhibition of edema entry is recorded as “edema was significantly inhibited”.
